Data as given in article PMC9224512, “New Insights into the Determinants of Specificity in Human Type I Arginase: Generation of a Mutant That Is Only Active with Agmatine as Substrate” (International Journal of Molecular Sciences, 2022).
Positions count from the first letter of the chain named. Several values for one entry are separate records, joined by “and”; a condition that tells them apart may be missing. Equal entries are not always repeated.

Experiments:
Type in all cases: biochemical
[1] = molecular target: T1, human arginase type I N139D (Homo sapiens, UniProt P05089, N139D); assay: Kinetic and inhibition studies, N139D mutant
T1 sequence (P05089 1-322 N139D): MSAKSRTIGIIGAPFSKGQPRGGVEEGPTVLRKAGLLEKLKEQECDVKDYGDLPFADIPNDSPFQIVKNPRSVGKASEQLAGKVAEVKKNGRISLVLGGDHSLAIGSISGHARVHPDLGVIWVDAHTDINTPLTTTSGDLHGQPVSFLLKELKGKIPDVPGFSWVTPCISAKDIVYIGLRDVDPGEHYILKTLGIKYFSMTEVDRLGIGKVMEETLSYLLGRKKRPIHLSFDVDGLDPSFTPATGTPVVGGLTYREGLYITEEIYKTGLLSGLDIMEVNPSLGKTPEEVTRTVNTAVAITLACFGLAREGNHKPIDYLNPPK
Procedure: (§1) Bacterial cultures were grown with shaking at 37 °C in Luria Broth media, in the presence of ampicillin (100 μg/mL). The wild-type and mutant human liver arginase cDNAs were directionally cloned into the pBluescript II KS(+) expression vector and then expressed in E. coli JM109, following induction with 1 mM isopropyl β-D-thiogalactopyranoside. The bacterial cells were disrupted by sonication on ice (5 × 30 s pulses), centrifuged for 20 min at 12,000× g, and the obtained supernatant was precipitated with ammonium sulfate (60% saturation). The pellet, collected by centrifugation at 12,000× g for 10 min, was re-suspended in buffer 5 mM Tris–HCl (pH 7.5) containing 2 mM MnCl2 and dialyzed for 6 h at 4 °C against the same buffer. After incubation with 5 mM MnCl2 for 10 min at 60 °C, the enzyme variants were purified as previously described. The purity of the enzymes was evaluated by SDS–PAGE stained by Coomassie blue and immunodetection using an anti- rat arginase I antibody.
(§2) The single, double, triple, and chimera variants of human arginase type I were obtained by PCR, using the QuickChange site-directed mutagenesis kit (Stratagene, La Jolla, CA, USA); the plasmid pBluescript II KS(+) containing the human liver arginase cDNA was used as template. To obtain the chimeric species of human arginase type I, serial mutations were made in each loop to be modified, using as template DNA the wild-type arginase gene or the previous done mutation, subcloned in the plasmid pBluescript II KS (+). Specifically, the residues present in the arginase structure were replaced by those corresponding to the agmatinase sequence of E. coli.
(§3) All assays were initiated by adding the enzyme to a previously equilibrated buffer with the substrate in solution (the concentrations of used substrates were between 0.2–3 fold the Km). Urea was determined by a colorimetric method with α-isonitrosopropiophenone. The protein concentrations were determined by the Bradford’s method, with bovine serum albumin as standard. Initial velocity and enzymatic inhibition experiments were performed in duplicate and repeated three times. The inhibitory patterns were initially determined by double reciprocal plots and re-plots of intercepts and slopes versus inhibitor concentrations. […] Velocities are expressed as μmol of urea/10 min.

[2] = molecular target: T2, WT-arginase (human arginase type I) (Homo sapiens, UniProt P05089); assay: Kinetic and inhibition studies, wild-type human arginase type I
T2 construct: made in house; host or cells: E. coli JM109
T2 sequence (P05089 1-322): T1 sequence (P05089 1-322 N139D) with D139N
Procedure: as §1, §3

[3] = molecular target: T3, Chimera A2 (I129T/N130Y/T131A+∆ P132-T134) of human arginase type I (Homo sapiens, UniProt P05089, DEL129-131/I129T/L133Y/N130Y/P132T/T134A); assay: Kinetic and inhibition studies, Chimera A2
T3 construct: made in house; host or cells: E. coli JM109
T3 sequence (P05089 with tags, fused parts or gaps DEL129-131/P132T/L133Y/T134A): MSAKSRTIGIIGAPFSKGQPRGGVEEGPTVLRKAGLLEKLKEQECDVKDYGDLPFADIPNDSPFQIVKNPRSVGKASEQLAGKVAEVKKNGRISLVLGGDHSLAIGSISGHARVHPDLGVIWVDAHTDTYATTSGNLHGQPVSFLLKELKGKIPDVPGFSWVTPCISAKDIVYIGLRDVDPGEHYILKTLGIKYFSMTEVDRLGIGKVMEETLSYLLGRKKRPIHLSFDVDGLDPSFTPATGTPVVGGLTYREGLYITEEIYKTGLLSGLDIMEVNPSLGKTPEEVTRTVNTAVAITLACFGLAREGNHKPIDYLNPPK
Procedure: as §1, §2, §3

[4] = molecular target: T4, Chimera A1 (I129T/N130Y/T131A) of human arginase type I (Homo sapiens, UniProt P05089, I129T/N130Y/T131A); assay: Kinetic and inhibition studies, Chimera A1
T4 sequence (P05089 1-322 I129T/N130Y/T131A): T1 sequence (P05089 1-322 N139D) with I129T, N130Y, T131A, D139N
Procedure: as §1, §2, §3

[5] = molecular target: T5, human arginase type I N130D (Homo sapiens, UniProt P05089, N130D); assay: Kinetic and inhibition studies, N130D mutant
T5 sequence (P05089 1-322 N130D): T1 sequence (P05089 1-322 N139D) with N130D, D139N
Procedure: as §1, §2, §3

[6] = substrate = labelled compound, pH 9.5, 2 mM Mn2+

How did the Ki ([1]; read-out: Ki^orn) turn out when `NCCC[C@H](N)C(=O)O` [Ornithine, L-ornithine] was run?
The Ki was 6.2 mM.

And the “Inhibition type” value ([2]; substrate arginine)?
The value was “Competitive”.

And the “Kis (Ki)” value ([2]; substrate arginine, pH 9.5)?
Its value is 2 ± 0.5 mM.

What about the “Inhibition by ornithine compared with wild-type arginase” value ([3]; pH 9.5, 37 °C, substrate 5 mM, Figure 4A) of the same molecule?
Its value is “much more insensitive to inhibition by ornithine than the wild-type arginase”.

And the “Inhibition type” value ([4]; substrate arginine)?
The value was “Competitive”.

And the “Kis (Ki)” value ([4]; substrate arginine)?
The value was 60 ± 2 mM.

What about the Ki ([5]; read-out: Ki^orn) of the same molecule?
The Ki was 7.8 mM.

Which kcat ([1]; substrate = labelled compound) does the source give for `N=C(N)NCCC[C@H](N)C(=O)O` [Arginine, L-arginine] here?
The kcat was 64 s⁻¹.

And the Km [1, 6]?
The Km was 4.4 mM.

And the Km [2, 6]?
The Km was 1.5 mM.

And the kcat ([2]; substrate = labelled compound, pH 9.5, 2 mM Mn2+, n/a = no activity with the substrate)?
Its kcat is 190 s⁻¹ and 190 ± 10 s⁻¹.

What about the “Inhibition type” value ([3]; substrate agmatine) of the same molecule?
The value was “linear competitive inhibition”.

What about the Kis ([3]; substrate agmatine) of the same molecule?
The Kis was 9 ± 3 mM.

And the kcat ([4]; substrate = labelled compound, n/a = no activity with the substrate)?
The kcat was 6.2 ± 0.4 s⁻¹.

And the Km [4, 6]?
The Km was 2.5 ± 0.5 mM.

What about the “arginase activity, % of the enzymatic activity of wild-type arginase” value ([4]; substrate arginine) of the same molecule?
The value was 3.5%.

And the “decrease of catalytic constant (kcat) compared with wild-type enzyme” value ([4]; substrate arginine)?
The value was “approximately 30 times”.

And the Km [5, 6]?
The Km was 13.3 mM.

What about the kcat [5, 6] of the same molecule?
The kcat was 33 s⁻¹.

What about the “catalytic activity relative to wild type” value ([5]; substrate arginine) of the same molecule?
The value was 17%.

What about the “kcat/Km ratio, times less than wild-type enzyme” value ([5]; substrate arginine) of the same molecule?
The value was 50 times.
